Assay results taken from US7893299B2, “Interleukin-1 and tumor necrosis factor-αmodulators; syntheses of such modulators and methods of using such modulators” (Nereus Pharmaceuticals, Inc., priority 2005, dated 2011).
Like-named read-outs stand apart in the source and are kept apart here.

Legend:
HS766T cells = assay: apoptosis by PI FACS analysis, HS766T; format: cell-based, human; conditions: combination treatment with Salinosporamide A, increased from 4%
From the text: (§1) Novel diterpene inhibitors of NFκB derived from acanthoic acid (NPI-1342 (Formula IIB-a1) and NPI-1387; compound 24 under scheme 4 above) show measurable effects in human pancreatic cancer cell lines in vitro. Seven of the nine cell lines were moderately sensitive to apoptosis induced by death receptor ligand Tumor Necrosis Factor (TNF) related apoptosis-inducing ligand (TRAIL). […] Specific silencing of NFkB/p65 expression mimicked these effects. Furthermore, combination treatment of Salinosporamide A and either NPI-1342 or NPI-1387 led to induction of apoptosis as measured by PI FACS analysis. Specifically, levels of DNA fragmentation increased from 4% to 50% in HS766T cells and from 4% to 52% in Panc1 cells. The inhibitory effects of NPI-1342, NPI-1387 on NFκB were evaluated by Electromobility Shift Assays and confirmed by confocal microscopy.

Panc1 and HS766T = assay: TRAIL resistance of human pancreatic cancer cell lines; format: cell-based
From the text: as §1

Panc1 cells = assay: apoptosis by PI FACS analysis, Panc1; format: cell-based, human; conditions: combination treatment with Salinosporamide A, increased from 4%
From the text: as §1

[1] = tested on: TNF-α and IL-1 production; conditions: approximately 0.1 to approximately 1.0 microgram/ml for 48 hours; cited from earlier work
[2] = mice, cited from earlier work; for toxicity (in words): mice and rats
[3] = tested on: silicosis (chronic lung inflammation) and cirrhosis (liver inflammation and hepatic fibrosis); conditions: mice with silicosis and cirrhosis; cited from earlier work
[4] = rat, in vivo; cited from earlier work
IL-6 or IFN-γ production = conditions: under the same conditions; cited from earlier work

Compound | levels of DNA fragmentation (HS766T cells) [%] | TRAIL resistance (Panc1 and HS766T) | levels of DNA fragmentation (Panc1 cells) [%] | inhibition of the TNF-α and IL-1 production [1] | LD ([2]; orally) | toxicity (in words) [2] | toxicity (in words) ([2]; listed as Compound 1) | histologic analysis: fibrotic granulomas and cirrotic liver cells [3] | minimum lethal dose (MLD) [4] [mg/kg] | production of IL-6 or IFN-γ (IL-6 or IFN-γ production)
C=C[C@@]1(C)CCC=C2[C@H]1CC[C@@H]1[C@](C)(C(=O)NC3CCCCC3)CCC[C@@]21C (stereo in doubt) [Formula (IIB-A1), N-Cyclohexylamide Derivative of TTL] | 50 | reversed TRAIL resistance | 52 |  |  |  |  |  |  | 
C=C[C@@]1(C)CC=C2[C@@H](CC[C@@H]3[C@](C)(C(=O)O)CCC[C@@]23C)C1 [Formula (I), acanthoic acid] |  |  |  | approximately 90% | > 300 mg/100 g of body weight | minimal toxicity | very little toxicity | substantial reduction of fibrotic granulomas and a remarkable recovery of the cirrotic liver cells | 1000 | not affected
